Measured values reported in article PMC12501029, “Discovery of a CNS active GSK3 degrader using orthogonally reactive linker screening” (Nature Communications, 2025).

Test: Cassette PK study with 22, 25 and 26
Type: in vivo, female Balb/c mice
Details: i.v. bolus cassette 0.5 mg/kg; for AUC(0-t) / clearance: female, Balb/c, mouse, iv, whole blood; for clearance: read-out: Cl_obs
Excerpt: Fifteen female mice of the Balb/c strain were obtained from Charles River Laboratories, UK. Animals were maintained under a 12-h light/12-h dark cycle, in Thoren mouse caging containing EC0 aspen bedding (DBM, UK), with 'Sizzlenest' and 'Rodent Rolls' nesting material (DBM). Enrichment materials included aspen chew sticks, cardboard houses, tunnels, swings, and sunflower seeds. All animals had ad libitum access to food (5LF2 Extruded Diet, IPS Ltd, UK) and tap water throughout. Temperature and relative humidity were maintained between 19 °C–24 °C and 45%–65%, respectively. All animals received a minimum of 10 days of acclimatisation prior to the start of the study.
The cassette formulation (22, 25 and 26) was prepared by producing separate stock solutions of each compound dissolved in DMSO (dimethyl sulfoxide) at a concentration of 6 mg/mL. Aliquots of each stock solution were combined in equal parts to produce a stock solution containing 2 mg/mL of each compound. This solution was then diluted with Polyethylene glycol 400 (PEG400), followed by drop-wise addition of sterile water. The final formulation consisted of 5% DMSO, 40% PEG400, and 55% water, and contained 0.1 mg/mL of each compound. For the cassette PK study, three female Balb/c mice were dosed via a bolus intravenous injection at a dose level of 0.5 mg/kg per compound (5 mL/kg). Serial blood samples (10 µL per sample) were collected from the lateral tail vein of each mouse at 5, 15 and 30 min, 1, 2, 4, 6, 8, and 24 h after dose administration. All blood samples were diluted into 90 µL of Milli‑Q ultrapure water and stored at −20 °C prior to bioanalysis. The concentration of 22, 25 and 26 in blood and brain was determined by UPLC-MS/MS.
Blood samples (10 µL) from study mice were diluted 1× with 90 µL of water immediately when the sample was taken. All calibration, quality control, blanks and double blank samples (all 100 µL volume) were mixed (vortexed) with 300 µL of LCMS grade acetonitrile to precipitate proteins.
For study samples, a volume (30 µL) was mixed (vortexed) with a volume (90 µL) of acetonitrile to precipitate proteins. After protein precipitation, all samples were centrifuged to pellet the proteins. Study samples in Micronics tubes were centrifuged using a Beckman Coutler Allegra C-12R Centrifuge for 10 min at 3750 rpm. All other samples in Eppendorf tubes were centrifuged using a Sigma SciQuip 1–14 centrifuge for 10 min (14,800 rpm/16,163 × g). Supernatant from study samples (80 µL) and calibration samples, QCs, blanks, and double blanks (200 µL) were then transferred to HPLC glass vials containing Milli-Q water (40 µL or 100 µL, respectively), ready for LCMS analysis.

O=C1CCC(NC(=O)c2ccc(CN3CCN(Cc4ccc(-c5cn(-c6ccc(-c7cn8nccc(C(=O)Nc9cnccc9N9CCOCC9)c8n7)cc6)nn5)nc4)CC3)cn2)C(=O)N1 (stereo not shown) [compound 22]
AUC(0-t): 444 ng·h/mL
clearance: 12 mL/min/kg
Cl_obs: moderate
Half_Life: 2.8 h
Vss_obs: 2.8 L/kg

Cn1nc(N2CCC(=O)NC2=O)c2ccc(CN3CCN(CCCc4cn(-c5ccc(-c6cn7nccc(C(=O)Nc8cnccc8N8CCOCC8)c7n6)cc5)nn4)CC3)cc21 [compound 26]
AUC(0-t): 590 ng·h/mL
clearance: 8 mL/min/kg
Cl_obs: moderate
Half_Life: 2.7 h
Vss_obs: 1.9 L/kg
